This assay in a line: Inhibition of rat brain Na(+)/K(+) ATPase.

The values below come from ChEMBL document CHEMBL1149739, “Sarcochromenol sulfates A-C and sarcohydroquinone sulfates A-C, new natural products from the sponge Sarcotragus spinulosus” (J Nat Prod, 1992).

In general, IC50 refers to the midpoint of a concentration-inhibition curve.

Where a name gives a salt, the structure may show the parent alone.

As for `CC(C)=CCC/C(C)=C/CC/C(C)=C/CC/C(C)=C/CC/C(C)=C/CC/C(C)=C/CC/C(C)=C/Cc1cc(OS(=O)(=O)O)ccc1OS(=O)(=O)O` [DISODIUM SARCOHYDROQUINONE SULFATE B], the 50% inhibitory concentration (IC50) turned out to be 1400 nM.

`CC(C)=CCC/C(C)=C/CC/C(C)=C/CC/C(C)=C/CC/C(C)=C/CCC1(C)C=Cc2cc(OS(=O)(=O)O)ccc2O1` (configuration not stated) [SODIUM SARCOCHROMENOL SULFATE A] had an IC50 of 1600 nM.
